Laboratory results taken from ChEMBL document CHEMBL4507266, “Data for DCP probe BAY-784” (2021).

What was measured:
[1] = biological target: T1, Alpha-1D adrenergic receptor (Homo sapiens) (UniProt P25100); conditions: Compound concentration 10.0 uM
T1 sequence (whole entry): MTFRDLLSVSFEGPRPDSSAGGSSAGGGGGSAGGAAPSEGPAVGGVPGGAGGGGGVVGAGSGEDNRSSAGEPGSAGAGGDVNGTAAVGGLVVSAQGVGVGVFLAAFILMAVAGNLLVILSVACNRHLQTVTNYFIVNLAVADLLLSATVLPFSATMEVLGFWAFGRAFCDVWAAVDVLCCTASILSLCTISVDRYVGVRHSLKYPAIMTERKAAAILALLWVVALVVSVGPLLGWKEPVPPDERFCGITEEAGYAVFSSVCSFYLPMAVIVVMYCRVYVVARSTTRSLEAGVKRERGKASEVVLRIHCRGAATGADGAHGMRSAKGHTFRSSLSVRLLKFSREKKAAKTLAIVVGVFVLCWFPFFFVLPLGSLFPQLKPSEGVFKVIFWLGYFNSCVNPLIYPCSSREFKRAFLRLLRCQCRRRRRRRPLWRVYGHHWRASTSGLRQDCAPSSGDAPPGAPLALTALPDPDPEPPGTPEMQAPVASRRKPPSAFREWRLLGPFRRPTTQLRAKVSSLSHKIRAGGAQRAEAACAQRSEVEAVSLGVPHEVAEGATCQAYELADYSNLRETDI

[2] = biological target: Ephrin type-B receptor 6 (Homo sapiens) (UniProt O15197); conditions: Compound concentration 1000.0 nM
[3] = biological target: Serine/threonine-protein kinase 32C (Homo sapiens) (UniProt Q86UX6); conditions: Compound concentration 1000.0 nM
[4] = biological target: Membrane-associated tyrosine- and threonine-specific cdc2-inhibitory kinase (Homo sapiens) (UniProt Q99640); conditions: Compound concentration 1000.0 nM
[5] = biological target: Dual serine/threonine and tyrosine protein kinase (Homo sapiens) (UniProt Q6XUX3); conditions: Compound concentration 1000.0 nM
Dual serine/threonine and tyrosine protein kinase (Homo sapiens), sequence (Q6XUX3 whole entry): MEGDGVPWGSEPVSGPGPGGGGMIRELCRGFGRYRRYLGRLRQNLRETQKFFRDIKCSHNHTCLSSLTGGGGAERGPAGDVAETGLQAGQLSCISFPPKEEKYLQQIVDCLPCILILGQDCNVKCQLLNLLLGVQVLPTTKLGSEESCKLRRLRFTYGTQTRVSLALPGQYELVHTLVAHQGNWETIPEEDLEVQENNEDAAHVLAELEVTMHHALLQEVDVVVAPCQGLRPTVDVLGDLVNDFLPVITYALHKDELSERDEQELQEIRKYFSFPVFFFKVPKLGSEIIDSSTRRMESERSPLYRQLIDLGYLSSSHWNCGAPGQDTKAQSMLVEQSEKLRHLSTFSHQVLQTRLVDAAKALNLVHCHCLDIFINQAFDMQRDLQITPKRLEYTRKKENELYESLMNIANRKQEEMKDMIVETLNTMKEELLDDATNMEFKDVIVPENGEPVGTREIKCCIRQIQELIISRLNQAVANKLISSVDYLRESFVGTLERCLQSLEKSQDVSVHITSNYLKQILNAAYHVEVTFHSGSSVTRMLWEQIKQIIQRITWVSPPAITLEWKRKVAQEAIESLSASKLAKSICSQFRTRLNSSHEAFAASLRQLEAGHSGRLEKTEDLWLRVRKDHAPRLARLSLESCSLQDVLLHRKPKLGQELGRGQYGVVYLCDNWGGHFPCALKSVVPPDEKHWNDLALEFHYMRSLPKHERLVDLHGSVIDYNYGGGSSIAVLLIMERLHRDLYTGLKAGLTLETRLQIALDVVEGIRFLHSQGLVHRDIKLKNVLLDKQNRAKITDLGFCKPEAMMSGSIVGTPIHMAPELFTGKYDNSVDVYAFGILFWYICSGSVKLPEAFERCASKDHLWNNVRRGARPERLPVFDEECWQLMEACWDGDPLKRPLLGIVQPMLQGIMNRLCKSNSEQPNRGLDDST

[6] = biological target: Homeodomain-interacting protein kinase 2 (Homo sapiens) (UniProt Q9H2X6); conditions: Compound concentration 1000.0 nM
[7] = biological target: Serine/threonine-protein kinase DCLK1 (Homo sapiens) (UniProt O15075); conditions: Compound concentration 1000.0 nM
[8] = biological target: Testis-specific serine/threonine-protein kinase 3 (Homo sapiens) (UniProt Q96PN8); conditions: Compound concentration 1000.0 nM
[9] = biological target: Phosphatidylinositol 5-phosphate 4-kinase type-2 gamma (Homo sapiens) (UniProt Q8TBX8); conditions: Compound concentration 1000.0 nM
[10] = system: Tyrosine-protein kinase ABL1 (Homo sapiens), P00519 [Y253F]; conditions: Compound concentration 1000.0 nM
[11] = biological target: Mitogen-activated protein kinase 10 (Homo sapiens) (UniProt P53779); conditions: Compound concentration 1000.0 nM
[12] = biological target: Cyclin-dependent kinase 18 (Homo sapiens) (UniProt Q07002); conditions: Compound concentration 1000.0 nM
[13] = biological target: cAMP-dependent protein kinase catalytic subunit PRKX (Homo sapiens) (UniProt P51817); conditions: Compound concentration 1000.0 nM
[14] = biological target: LIM domain kinase 2 (Homo sapiens) (UniProt P53671); conditions: Compound concentration 1000.0 nM
LIM domain kinase 2 (Homo sapiens), sequence (P53671 whole entry, looked up, the tested form may be a part): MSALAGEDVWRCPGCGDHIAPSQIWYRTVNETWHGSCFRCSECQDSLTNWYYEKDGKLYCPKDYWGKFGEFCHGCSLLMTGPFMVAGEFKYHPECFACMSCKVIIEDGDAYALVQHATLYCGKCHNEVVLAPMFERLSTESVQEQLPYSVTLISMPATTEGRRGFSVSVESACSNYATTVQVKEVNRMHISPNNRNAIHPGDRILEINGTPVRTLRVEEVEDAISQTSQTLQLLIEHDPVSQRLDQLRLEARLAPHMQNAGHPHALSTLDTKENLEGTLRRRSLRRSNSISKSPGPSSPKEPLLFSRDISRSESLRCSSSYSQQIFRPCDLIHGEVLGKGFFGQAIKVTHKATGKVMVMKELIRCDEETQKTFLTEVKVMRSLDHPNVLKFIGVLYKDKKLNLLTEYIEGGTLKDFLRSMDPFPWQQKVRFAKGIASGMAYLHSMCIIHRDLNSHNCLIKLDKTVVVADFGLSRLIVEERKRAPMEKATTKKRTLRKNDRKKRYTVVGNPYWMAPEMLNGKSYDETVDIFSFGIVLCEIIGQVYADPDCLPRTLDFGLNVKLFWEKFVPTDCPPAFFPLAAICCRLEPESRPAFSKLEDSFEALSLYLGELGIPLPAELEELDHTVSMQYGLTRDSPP

[15] = biological target: T2, Muscarinic acetylcholine receptor M5 (Homo sapiens) (UniProt P08912); conditions: Compound concentration 10.0 uM
T2 sequence (whole entry): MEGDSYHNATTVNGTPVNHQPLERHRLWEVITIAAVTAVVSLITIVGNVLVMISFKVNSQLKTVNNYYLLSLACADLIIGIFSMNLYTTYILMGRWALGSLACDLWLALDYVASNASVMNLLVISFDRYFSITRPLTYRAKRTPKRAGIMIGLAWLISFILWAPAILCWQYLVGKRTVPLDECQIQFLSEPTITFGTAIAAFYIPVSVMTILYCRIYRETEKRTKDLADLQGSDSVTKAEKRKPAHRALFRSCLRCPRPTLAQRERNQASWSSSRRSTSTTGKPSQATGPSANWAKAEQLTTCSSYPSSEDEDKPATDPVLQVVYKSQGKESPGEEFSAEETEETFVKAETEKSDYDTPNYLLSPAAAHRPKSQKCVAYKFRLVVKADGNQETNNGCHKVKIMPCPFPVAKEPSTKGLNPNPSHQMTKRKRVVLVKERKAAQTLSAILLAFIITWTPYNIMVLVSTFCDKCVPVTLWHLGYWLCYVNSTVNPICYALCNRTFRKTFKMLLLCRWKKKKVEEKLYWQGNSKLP

[16] = biological target: TGF-beta receptor type-1 (Homo sapiens) (UniProt P36897); conditions: Compound concentration 1000.0 nM
[17] = biological target: Serine/threonine-protein kinase N1 (Homo sapiens) (UniProt Q16512); conditions: Compound concentration 1000.0 nM
Serine/threonine-protein kinase N1 (Homo sapiens), sequence (Q16512 2-942 limits assumed): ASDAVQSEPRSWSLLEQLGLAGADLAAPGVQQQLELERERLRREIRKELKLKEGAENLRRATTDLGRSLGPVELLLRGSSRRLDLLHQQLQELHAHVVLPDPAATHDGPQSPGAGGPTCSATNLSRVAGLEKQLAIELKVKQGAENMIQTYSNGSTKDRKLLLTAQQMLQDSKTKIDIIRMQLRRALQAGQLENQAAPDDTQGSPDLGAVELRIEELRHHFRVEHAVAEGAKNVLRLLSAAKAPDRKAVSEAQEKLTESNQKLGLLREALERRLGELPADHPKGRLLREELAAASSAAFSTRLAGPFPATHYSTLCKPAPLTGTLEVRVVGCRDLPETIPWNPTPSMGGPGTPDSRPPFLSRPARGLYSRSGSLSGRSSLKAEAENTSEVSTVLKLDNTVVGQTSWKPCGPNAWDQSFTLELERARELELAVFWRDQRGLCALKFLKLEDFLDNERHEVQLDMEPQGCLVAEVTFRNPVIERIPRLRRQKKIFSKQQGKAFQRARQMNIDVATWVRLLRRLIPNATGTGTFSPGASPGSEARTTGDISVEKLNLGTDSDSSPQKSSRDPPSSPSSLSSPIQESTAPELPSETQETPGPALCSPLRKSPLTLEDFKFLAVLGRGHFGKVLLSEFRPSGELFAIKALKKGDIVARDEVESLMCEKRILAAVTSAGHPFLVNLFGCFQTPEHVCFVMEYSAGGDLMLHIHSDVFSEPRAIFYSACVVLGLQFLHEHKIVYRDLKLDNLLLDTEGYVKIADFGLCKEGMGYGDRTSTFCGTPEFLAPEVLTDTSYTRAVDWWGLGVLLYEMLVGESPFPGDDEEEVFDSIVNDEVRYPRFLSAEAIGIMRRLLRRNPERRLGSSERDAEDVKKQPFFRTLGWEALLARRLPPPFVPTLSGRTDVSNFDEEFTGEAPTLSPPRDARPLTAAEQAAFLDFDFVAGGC

[18] = biological target: Interleukin-1 receptor-associated kinase 1 (Homo sapiens) (UniProt P51617); conditions: Compound concentration 1000.0 nM
[19] = biological target: Cytoplasmic tyrosine-protein kinase BMX (Homo sapiens) (UniProt P51813); conditions: Compound concentration 1000.0 nM
[20] = biological target: MAP kinase-activated protein kinase 2 (Homo sapiens) (UniProt P49137); conditions: Compound concentration 1000.0 nM
[21] = biological target: Myosin light chain kinase 2, skeletal/cardiac muscle (Homo sapiens) (UniProt Q9H1R3); conditions: Compound concentration 1000.0 nM
Myosin light chain kinase 2, skeletal/cardiac muscle (Homo sapiens), sequence (Q9H1R3 whole entry): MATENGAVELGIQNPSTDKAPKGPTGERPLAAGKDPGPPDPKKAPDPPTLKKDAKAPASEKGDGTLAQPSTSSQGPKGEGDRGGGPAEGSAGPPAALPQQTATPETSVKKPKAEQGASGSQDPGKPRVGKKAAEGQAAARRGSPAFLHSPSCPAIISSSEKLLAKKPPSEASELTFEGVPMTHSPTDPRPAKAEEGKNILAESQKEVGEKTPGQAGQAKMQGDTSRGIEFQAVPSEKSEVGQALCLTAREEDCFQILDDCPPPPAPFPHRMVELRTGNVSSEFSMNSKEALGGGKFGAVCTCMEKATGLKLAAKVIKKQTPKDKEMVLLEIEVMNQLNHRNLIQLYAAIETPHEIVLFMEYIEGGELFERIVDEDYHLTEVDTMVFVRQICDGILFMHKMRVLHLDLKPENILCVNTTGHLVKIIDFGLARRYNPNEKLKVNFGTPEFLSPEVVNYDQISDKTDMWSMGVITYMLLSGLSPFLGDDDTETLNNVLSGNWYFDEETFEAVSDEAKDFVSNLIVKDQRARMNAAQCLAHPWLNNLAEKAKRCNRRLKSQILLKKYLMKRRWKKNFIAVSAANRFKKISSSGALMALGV

[22] = biological target: Cyclin-dependent kinase 9 (Homo sapiens) (UniProt P50750); conditions: Compound concentration 1000.0 nM
[23] = biological target: Discoidin domain-containing receptor 2 (Homo sapiens) (UniProt Q16832); conditions: Compound concentration 1000.0 nM
[24] = biological target: Mitogen-activated protein kinase kinase kinase 6 (Homo sapiens) (UniProt O95382); conditions: Compound concentration 1000.0 nM
[25] = system: Receptor-type tyrosine-protein kinase FLT3 (Homo sapiens), P36888 [D835Y]; conditions: Compound concentration 1000.0 nM
[26] = biological target: Ribosomal protein S6 kinase alpha-4 (Homo sapiens) (UniProt O75676); conditions: Compound concentration 1000.0 nM
[27] = system: Epidermal growth factor receptor (Homo sapiens), P00533 [L861Q]; conditions: Compound concentration 1000.0 nM
[28] = biological target: Mitogen-activated protein kinase kinase kinase 1 (Homo sapiens) (UniProt Q13233); conditions: Compound concentration 1000.0 nM
Mitogen-activated protein kinase kinase kinase 1 (Homo sapiens), sequence (Q13233 whole entry): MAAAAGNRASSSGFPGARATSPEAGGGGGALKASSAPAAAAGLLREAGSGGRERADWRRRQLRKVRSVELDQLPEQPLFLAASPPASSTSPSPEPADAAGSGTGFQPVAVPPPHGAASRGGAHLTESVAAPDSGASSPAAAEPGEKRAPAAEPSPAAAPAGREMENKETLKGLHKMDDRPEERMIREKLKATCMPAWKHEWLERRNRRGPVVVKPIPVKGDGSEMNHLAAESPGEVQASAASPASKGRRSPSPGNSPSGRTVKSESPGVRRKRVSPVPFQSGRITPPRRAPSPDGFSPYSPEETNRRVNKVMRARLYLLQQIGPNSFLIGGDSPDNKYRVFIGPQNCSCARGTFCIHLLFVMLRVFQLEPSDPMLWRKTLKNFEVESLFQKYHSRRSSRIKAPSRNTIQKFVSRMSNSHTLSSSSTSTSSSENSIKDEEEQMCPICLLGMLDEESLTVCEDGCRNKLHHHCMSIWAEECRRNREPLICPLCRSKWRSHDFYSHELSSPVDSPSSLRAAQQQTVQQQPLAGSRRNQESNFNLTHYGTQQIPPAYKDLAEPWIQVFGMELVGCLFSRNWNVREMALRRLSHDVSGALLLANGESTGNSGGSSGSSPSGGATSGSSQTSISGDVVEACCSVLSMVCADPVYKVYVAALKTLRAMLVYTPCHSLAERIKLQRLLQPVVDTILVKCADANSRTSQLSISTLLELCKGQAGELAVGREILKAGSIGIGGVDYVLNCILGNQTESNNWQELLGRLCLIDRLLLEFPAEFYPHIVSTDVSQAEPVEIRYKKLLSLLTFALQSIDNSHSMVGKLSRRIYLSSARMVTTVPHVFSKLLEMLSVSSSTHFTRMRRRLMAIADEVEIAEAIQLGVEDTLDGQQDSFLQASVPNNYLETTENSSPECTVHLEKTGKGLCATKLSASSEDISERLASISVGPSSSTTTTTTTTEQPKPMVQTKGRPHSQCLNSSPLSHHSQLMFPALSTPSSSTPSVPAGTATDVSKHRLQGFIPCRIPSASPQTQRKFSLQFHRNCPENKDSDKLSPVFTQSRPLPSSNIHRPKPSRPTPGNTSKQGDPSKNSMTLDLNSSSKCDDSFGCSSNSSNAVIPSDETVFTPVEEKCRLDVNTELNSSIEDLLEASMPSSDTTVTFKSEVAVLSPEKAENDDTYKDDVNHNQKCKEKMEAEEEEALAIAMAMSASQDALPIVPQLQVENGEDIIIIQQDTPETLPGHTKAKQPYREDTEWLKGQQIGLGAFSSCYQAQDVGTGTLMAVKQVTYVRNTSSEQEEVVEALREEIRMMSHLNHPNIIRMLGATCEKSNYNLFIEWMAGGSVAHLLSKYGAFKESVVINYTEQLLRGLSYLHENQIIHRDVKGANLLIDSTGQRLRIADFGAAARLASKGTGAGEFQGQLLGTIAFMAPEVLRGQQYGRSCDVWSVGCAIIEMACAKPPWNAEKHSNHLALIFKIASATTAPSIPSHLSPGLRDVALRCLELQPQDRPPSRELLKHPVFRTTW

[29] = biological target: Activin receptor type-2A (Homo sapiens) (UniProt P27037); conditions: Compound concentration 1000.0 nM
[30] = biological target: Death-associated protein kinase 3 (Homo sapiens) (UniProt O43293); conditions: Compound concentration 1000.0 nM
Death-associated protein kinase 3 (Homo sapiens), sequence (O43293 whole entry, looked up): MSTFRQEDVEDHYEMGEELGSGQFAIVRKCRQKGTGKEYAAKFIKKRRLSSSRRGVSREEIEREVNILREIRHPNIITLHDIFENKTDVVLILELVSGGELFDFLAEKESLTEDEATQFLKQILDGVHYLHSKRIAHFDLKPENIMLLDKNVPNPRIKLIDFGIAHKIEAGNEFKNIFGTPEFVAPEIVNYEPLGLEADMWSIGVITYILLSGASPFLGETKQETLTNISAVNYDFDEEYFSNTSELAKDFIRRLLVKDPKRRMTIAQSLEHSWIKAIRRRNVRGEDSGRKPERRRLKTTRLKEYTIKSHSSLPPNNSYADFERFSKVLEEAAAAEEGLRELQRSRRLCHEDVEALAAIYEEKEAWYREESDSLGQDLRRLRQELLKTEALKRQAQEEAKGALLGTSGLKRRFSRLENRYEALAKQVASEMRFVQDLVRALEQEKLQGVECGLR

O=C(NCc1ncc(C(F)(F)F)cc1Cl)c1ccc2c(c1)C1(CCS(=O)(=O)CC1)[C@H](C1CC1)N2S(=O)(=O)c1ccc(F)cc1 [BAY-784]
inactive: inhibition [1] 4.13% | residual activity [2] 80% | residual activity [3] 100% | residual activity [4] 100% | residual activity [5] 76% | residual activity [6] 81% | residual activity [7] 83% | residual activity [8] 87% | residual activity [9] 100% | residual activity [10] 85% | residual activity [11] 88% | residual activity [12] 100% | residual activity [13] 88% | residual activity [14] 100% | inhibition [15] -6.43% | residual activity [16] 100% | residual activity [17] 100% | residual activity [18] 82% | residual activity [19] 100% | residual activity [20] 100% | residual activity [21] 100% | residual activity [22] 100% | residual activity [23] 78% | residual activity [24] 83% | residual activity [25] 100% | residual activity [26] 100% | residual activity [27] 84% | residual activity [28] 63% | residual activity [29] 86% | residual activity [30] 90%

O=C(NCc1ncc(C(F)(F)F)cc1Cl)c1ccc2c(c1)C1(CCS(=O)(=O)CC1)[C@@H](C1CC1)N2S(=O)(=O)c1ccc(F)cc1 [BAY-786]
inactive: inhibition [1] -3.69% | residual activity [2] 94% | residual activity [3] 100% | residual activity [4] 92% | residual activity [5] 78% | residual activity [6] 72% | residual activity [7] 74% | residual activity [8] 97% | residual activity [9] 100% | residual activity [10] 100% | residual activity [11] 73% | residual activity [12] 100% | residual activity [13] 100% | residual activity [14] 94% | inhibition [15] -1.92% | residual activity [16] 84% | residual activity [17] 100% | residual activity [18] 77% | residual activity [19] 92% | residual activity [20] 100% | residual activity [21] 83% | residual activity [22] 100% | residual activity [23] 67% | residual activity [24] 68% | residual activity [25] 100% | residual activity [26] 96% | residual activity [27] 76% | residual activity [28] 68% | residual activity [29] 100% | residual activity [30] 89%
